# Data: ChEMBL document CHEMBL2429823, “Synthesis and biological evaluation of novel 3,4-diaryl lactam derivatives as triple reuptake inhibitors” (Bioorg Med Chem Lett, 2013)
# How the values were obtained:
# [1] = biological target: T1, Sodium-dependent dopamine transporter (Homo sapiens, UniProt Q01959); test: Displacement of [3H]Win35428 from human recombinant DAT over-expressed in CHOK1 cells at 10 uM; assay type: cell-based; details: CHO-K1
# [2] = biological target: T2, Sodium-dependent serotonin transporter (Homo sapiens, UniProt P31645); test: Displacement of [3H]imipramin from human recombinant SERT over-expressed in HEK293 cells at 10 uM; assay type: cell-based
# Target sequence in this assay (P31645 whole entry, looked up): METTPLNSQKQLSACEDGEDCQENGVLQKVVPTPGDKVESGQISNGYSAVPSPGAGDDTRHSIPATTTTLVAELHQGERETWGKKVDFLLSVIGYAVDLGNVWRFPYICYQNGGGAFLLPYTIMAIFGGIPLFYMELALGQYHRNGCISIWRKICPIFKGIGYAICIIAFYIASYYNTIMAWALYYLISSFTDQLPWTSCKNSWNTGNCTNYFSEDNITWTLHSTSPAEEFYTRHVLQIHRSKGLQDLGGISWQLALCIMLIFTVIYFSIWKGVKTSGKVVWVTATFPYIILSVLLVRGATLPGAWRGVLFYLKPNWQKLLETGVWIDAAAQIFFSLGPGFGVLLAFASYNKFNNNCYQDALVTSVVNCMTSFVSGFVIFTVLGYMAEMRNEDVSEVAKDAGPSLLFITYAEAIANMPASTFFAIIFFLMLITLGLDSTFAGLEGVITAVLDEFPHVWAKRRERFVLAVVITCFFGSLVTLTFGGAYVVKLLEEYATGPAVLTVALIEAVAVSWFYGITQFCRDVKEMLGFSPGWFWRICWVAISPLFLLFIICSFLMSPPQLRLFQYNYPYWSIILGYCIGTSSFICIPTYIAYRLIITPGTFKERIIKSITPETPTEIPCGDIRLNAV
# [3] = biological target: T3, Sodium-dependent noradrenaline transporter (Homo sapiens, UniProt P23975); test: Displacement of [3H]Nisoxetine from human recombinant NET over-expressed in dog MDCK cells at 10 uM; assay type: cell-based
# [4] = biological target: T1, Sodium-dependent dopamine transporter; test: biochemical
# [5] = biological target: T2, Sodium-dependent serotonin transporter; details: HEK293, at 10 µM
# Target sequence in this assay (P31645 whole entry, looked up): as above
# Description: Inhibition of human SERT-mediated serotonin uptake expressed in HEK293 cells at 10 uM after 15 mins by fluorescence plate reader analysis
# [6] = biological target: T3, Sodium-dependent noradrenaline transporter; test: biochemical
# [7] = biological target: T2, Sodium-dependent serotonin transporter; test: biochemical; assay type: cell-based, HEK293
# Target sequence in this assay (P31645 whole entry): as the sequence (P31645 whole entry, looked up) above
# T3 sequence (P23975 whole entry): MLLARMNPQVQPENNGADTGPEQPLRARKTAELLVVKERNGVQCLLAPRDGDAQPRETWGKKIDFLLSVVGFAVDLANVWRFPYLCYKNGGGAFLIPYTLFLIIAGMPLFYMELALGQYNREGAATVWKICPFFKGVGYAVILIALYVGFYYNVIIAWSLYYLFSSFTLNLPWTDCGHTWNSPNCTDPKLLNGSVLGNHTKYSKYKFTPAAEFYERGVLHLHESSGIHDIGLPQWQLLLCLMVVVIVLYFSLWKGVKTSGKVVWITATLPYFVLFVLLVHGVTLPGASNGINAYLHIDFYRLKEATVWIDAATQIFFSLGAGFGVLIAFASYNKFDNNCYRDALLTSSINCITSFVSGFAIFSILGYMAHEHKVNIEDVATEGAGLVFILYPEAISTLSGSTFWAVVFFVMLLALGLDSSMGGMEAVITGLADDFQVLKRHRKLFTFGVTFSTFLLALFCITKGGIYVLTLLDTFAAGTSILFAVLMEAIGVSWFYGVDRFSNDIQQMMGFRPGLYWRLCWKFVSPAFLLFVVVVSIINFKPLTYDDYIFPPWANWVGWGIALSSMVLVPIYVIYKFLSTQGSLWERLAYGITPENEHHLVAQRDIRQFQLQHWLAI
# T1 sequence (Q01959 whole entry): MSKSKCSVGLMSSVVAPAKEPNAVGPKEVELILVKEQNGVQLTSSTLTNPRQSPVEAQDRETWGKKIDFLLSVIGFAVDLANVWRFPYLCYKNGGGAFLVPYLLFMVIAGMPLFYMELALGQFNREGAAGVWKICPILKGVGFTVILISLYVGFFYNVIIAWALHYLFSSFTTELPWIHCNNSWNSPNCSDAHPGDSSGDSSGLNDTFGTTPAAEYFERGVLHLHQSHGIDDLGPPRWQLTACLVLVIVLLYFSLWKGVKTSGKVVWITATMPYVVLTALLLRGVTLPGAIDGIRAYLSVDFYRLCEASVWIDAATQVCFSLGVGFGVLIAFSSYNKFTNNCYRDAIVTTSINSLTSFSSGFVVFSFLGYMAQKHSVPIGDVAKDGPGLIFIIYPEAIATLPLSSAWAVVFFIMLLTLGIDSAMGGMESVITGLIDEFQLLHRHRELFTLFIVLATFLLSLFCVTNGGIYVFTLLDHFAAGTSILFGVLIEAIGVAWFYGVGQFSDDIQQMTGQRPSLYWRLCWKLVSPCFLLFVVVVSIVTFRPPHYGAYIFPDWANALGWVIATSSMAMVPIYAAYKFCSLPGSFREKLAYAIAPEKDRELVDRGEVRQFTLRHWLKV
inhibition [1],inhibition [2],inhibition [3],IC50 [4],inhibition [5],IC50 [6],IC50 [7],Structure (SMILES)
96%,57%,92%,0.281 µM,22.7%,1.9 µM,–,O=C1NCC(c2ccc(Cl)cc2)C1c1ccc(Cl)c(Cl)c1 (configuration not stated)
70%,23%,5%,2.14 µM,19.3%,–,–,O=C1NCC(c2ccccc2Cl)C1c1ccccc1 (configuration not stated)
87%,57%,93%,0.0417 µM,20.4%,0.384 µM,–,O=C1NCC(c2ccc(Cl)c(Cl)c2)C1c1cccc(Cl)c1 (configuration not stated)
99%,20%,50%,0.0327 µM,30.8%,–,–,O=C1NCC(c2ccc(Cl)cc2)C1c1ccccc1 (configuration not stated)
96%,39%,41%,0.0173 µM,20.2%,–,–,O=C1NCC(c2cccc(Cl)c2)C1c1ccccc1Cl (configuration not stated)
83%,49%,87%,0.0366 µM,29.4%,0.866 µM,–,O=C1NCC(c2ccc(Cl)c(Cl)c2)C1c1ccccc1 (configuration not stated)
85%,42%,90%,0.285 µM,8.8%,0.99 µM,–,O=C1NCC(c2ccc(Cl)c(Cl)c2)C1c1ccc(Cl)c(Cl)c1 (configuration not stated)
5%,9%,10%,–,–,–,–,Clc1ccc2c(c1)[C@@H]1[C@@H](c3ccccc3)CN[C@@H]1CC2
99%,71%,78%,0.172 µM,40.9%,2.74 µM,3.76 µM,O=C1NCC(c2cccc(Cl)c2)C1c1ccc(Cl)c(Cl)c1 (configuration not stated)
87%,26%,90%,1.73 µM,6.2%,2.52 µM,–,O=C1NCC(c2ccccc2Cl)C1c1ccc(Cl)c(Cl)c1 (configuration not stated)
100%,52%,99%,0.00814 µM,21.9%,0.51 µM,–,O=C1NCC(c2ccc(Cl)c(Cl)c2)C1c1ccccc1Cl (configuration not stated)
97%,49%,74%,0.0815 µM,23.4%,3.57 µM,–,O=C1NCC(c2ccc(Cl)cc2)C1c1ccccc1Cl (configuration not stated)
97%,79%,91%,0.16 µM,26.3%,1.19 µM,6.45 µM,O=C1NCC(c2ccc(Cl)cc2)C1c1ccc2ccccc2c1 (configuration not stated)
23%,56%,89%,–,4.5%,1.38 µM,–,O=C1NCC(c2ccccc2Cl)C1c1ccc2ccccc2c1 (configuration not stated)

# The remaining lines, values behind:
Structure (SMILES),inhibition [1],inhibition [2],inhibition [3],IC50 [4],inhibition [5],IC50 [6],IC50 [7]
Clc1ccc2c(c1)CC[C@H]1NC[C@H](c3ccccc3)[C@@H]21,5%,9%,10%,–,–,–,–
O=C1NCC(c2cccc(Cl)c2)C1c1ccccc1 (configuration not stated),98%,55%,26%,0.0227 µM,24.3%,–,–
CN(C)CCCN1c2ccccc2CCc2ccc(Cl)cc21 [CLOMIPRAMINE],–,–,–,2.78 µM,–,–,–
O=C1NCC(c2ccc(Cl)cc2)C1c1cccc(Cl)c1 (configuration not stated),99%,22%,72%,0.0363 µM,12.2%,3.82 µM,–
O=C1NCC(c2ccccc2Cl)C1c1ccc(Cl)cc1 (configuration not stated),51%,26%,60%,–,8.5%,7.62 µM,–
O=C1NCC(c2ccc(Cl)cc2)C1c1ccc(Cl)cc1 (configuration not stated),99%,84%,75%,0.179 µM,58.1%,5.18 µM,0.0992 µM
Clc1ccc2c(c1Cl)CC[C@H]1NC[C@H](c3ccccc3)[C@@H]21,5%,9%,10%,–,–,–,–
O=C1NCC(c2cccc(Cl)c2)C1c1cccc(Cl)c1 (configuration not stated),98%,26%,59%,0.0387 µM,14.3%,–,–
O=C1NCC(c2cccc(Cl)c2)C1c1ccc(Cl)cc1 (configuration not stated),95%,49%,87%,0.0331 µM,38.4%,1.66 µM,–
Clc1cccc2c1CC[C@H]1NC[C@H](c3ccccc3)[C@@H]21,5%,9%,10%,–,–,–,–
O=C1NCC(c2ccc(Cl)c(Cl)c2)C1c1ccc2ccccc2c1 (configuration not stated),86%,69%,94%,0.121 µM,4.4%,0.483 µM,0.965 µM
O=C1NCC(c2ccccc2Cl)C1c1ccccc1Cl (configuration not stated),45%,20%,33%,–,6.9%,–,–
CNCCC(Oc1ccccc1OC)c1ccccc1 (configuration not stated),–,–,–,–,54%,–,–
O=C1NCC(c2ccc(Cl)c(Cl)c2)C1c1ccc(Cl)cc1 (configuration not stated),76%,90%,83%,0.0996 µM,50.4%,2.03 µM,0.0856 µM
